Test results as given in patent US20230312576A1, “4-(7H-PYRROLO[2,3-D]PYRIMIDIN-4-YL)-3,6-DIHYDROPYRIDINE-1-(2H)-CARBOXAMIDE DERIVATIVES AS LIMK AND/OR ROCK KINASES INHIBITORS FOR USE IN THE TREATMENT OF CANCER” (CENTRE NATIONAL DE LA RECHERCHE SCIENTIFIQUE, priority 2020, published 2023).
Like-named read-outs stand apart in the source and are kept apart here.

Legend:
ROCK1 = ROCK1 (Homo sapiens (Human), UniProt Q13464); assay: Z'Lyte assay, ROCK1 inhibition at a single concentration; type: biochemical
ROCK2 = ROCK2 (Homo sapiens (Human), UniProt O75116); assay: Z'Lyte assay, ROCK2 inhibition at a single concentration; type: biochemical
LIMK2 = LIMK2 (Homo sapiens (Human), UniProt P53671); assay: Lanthascreen Eu binding assay (TR-FRET), inhibition of LIMK2
[1] = system: cofilin phosphorylation, HeLa cells; assay: Cofilin phosphorylation by Western Blot (anti-phospho-Ser3-cofilin) in HeLa cells; type: cell-based; conditions: for inhibition at 25 µM: Homo sapiens
LIMK1 = LIMK1 (Homo sapiens (Human), UniProt P53667); assay: Lanthascreen Eu binding assay (TR-FRET), inhibition of LIMK1
[2] = read-out: % inhibition (ROCK1) 1 uM
[3] = read-out: % inhibition (ROCK2) 1 uM
[4] = HeLa, 2 h, read-out: % inhibition Cofilin phosphorylation HeLa cells treated 2 h with 25 uM of inhibitor
[5] = HeLa, 2 h, read-out: % inhibition of cofilin phosphorylation in HeLa cells (treatment 2 h, at 25 μM)
[6] = read-out: % inhibition (ROCK1) 1 uM, 1 uM
[7] = read-out: % inhibition (ROCK2) 1 uM, 1 uM
[8] = HeLa, 2 h, read-out: % inhibition of cofilin phosphorylation in HeLa cells (treatment 2 h, at 25 μM), Table 2, normalized to the control condition DMSO
[9] = read-out: % inhibition Cofilin phosphorylation HeLa cells treated 2 h with 25 uM of inhibitor, HeLa cells, 2 h, 25 uM
[10] = Table 2, normalized to the control condition DMSO

Chain of ROCK1 (Q13464 whole entry): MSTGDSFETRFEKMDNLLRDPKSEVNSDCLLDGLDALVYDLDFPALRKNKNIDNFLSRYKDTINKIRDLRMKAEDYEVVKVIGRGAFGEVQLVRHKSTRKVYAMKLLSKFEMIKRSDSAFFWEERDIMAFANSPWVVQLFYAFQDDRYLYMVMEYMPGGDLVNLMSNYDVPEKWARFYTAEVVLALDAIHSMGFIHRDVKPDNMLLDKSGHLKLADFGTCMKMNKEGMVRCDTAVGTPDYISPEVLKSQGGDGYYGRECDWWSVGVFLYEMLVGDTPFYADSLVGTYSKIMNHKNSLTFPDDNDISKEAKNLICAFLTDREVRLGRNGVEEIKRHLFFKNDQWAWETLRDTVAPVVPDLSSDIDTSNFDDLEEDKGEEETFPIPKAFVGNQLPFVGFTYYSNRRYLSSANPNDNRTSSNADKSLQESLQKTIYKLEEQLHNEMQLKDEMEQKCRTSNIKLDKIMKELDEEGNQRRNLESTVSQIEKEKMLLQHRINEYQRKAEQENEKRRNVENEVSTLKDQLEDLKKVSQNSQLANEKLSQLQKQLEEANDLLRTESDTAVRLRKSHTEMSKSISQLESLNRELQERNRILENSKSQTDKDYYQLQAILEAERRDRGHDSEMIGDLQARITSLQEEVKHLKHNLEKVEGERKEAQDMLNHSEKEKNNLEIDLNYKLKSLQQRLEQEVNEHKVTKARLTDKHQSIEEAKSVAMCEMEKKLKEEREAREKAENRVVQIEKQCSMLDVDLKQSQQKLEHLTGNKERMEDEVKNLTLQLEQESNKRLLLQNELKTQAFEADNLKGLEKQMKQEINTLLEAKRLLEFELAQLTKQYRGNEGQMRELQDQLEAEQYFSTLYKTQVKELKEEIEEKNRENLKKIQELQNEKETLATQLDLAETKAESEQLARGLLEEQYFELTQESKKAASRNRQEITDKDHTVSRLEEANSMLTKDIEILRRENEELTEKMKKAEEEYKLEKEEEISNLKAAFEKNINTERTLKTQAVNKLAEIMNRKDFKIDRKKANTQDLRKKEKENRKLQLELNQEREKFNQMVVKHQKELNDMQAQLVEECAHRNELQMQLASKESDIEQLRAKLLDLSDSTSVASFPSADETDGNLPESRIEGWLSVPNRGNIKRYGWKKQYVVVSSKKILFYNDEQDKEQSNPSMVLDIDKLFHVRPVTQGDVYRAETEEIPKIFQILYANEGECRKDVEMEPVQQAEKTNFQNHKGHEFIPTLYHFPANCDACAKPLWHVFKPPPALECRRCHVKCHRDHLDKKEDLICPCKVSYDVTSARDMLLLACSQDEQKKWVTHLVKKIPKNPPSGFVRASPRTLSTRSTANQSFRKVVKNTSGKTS
Chain of LIMK2 (P53671 whole entry): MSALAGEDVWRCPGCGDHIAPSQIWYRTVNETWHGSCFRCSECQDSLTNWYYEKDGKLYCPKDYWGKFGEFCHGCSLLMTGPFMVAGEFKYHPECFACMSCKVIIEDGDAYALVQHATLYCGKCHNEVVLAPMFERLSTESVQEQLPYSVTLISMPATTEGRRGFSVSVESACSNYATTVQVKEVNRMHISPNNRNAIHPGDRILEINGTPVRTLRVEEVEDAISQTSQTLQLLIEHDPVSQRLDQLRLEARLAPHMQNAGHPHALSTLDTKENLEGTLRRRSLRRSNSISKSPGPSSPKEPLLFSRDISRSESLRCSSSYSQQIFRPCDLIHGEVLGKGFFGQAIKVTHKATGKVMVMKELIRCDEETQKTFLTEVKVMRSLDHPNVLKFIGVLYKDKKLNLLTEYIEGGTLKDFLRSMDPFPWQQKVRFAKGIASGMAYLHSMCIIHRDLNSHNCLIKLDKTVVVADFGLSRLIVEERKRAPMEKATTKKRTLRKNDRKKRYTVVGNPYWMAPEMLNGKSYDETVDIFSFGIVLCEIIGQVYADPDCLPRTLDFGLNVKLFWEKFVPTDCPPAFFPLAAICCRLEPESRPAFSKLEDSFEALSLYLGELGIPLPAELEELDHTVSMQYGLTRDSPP
Chain of ROCK2 (O75116 whole entry): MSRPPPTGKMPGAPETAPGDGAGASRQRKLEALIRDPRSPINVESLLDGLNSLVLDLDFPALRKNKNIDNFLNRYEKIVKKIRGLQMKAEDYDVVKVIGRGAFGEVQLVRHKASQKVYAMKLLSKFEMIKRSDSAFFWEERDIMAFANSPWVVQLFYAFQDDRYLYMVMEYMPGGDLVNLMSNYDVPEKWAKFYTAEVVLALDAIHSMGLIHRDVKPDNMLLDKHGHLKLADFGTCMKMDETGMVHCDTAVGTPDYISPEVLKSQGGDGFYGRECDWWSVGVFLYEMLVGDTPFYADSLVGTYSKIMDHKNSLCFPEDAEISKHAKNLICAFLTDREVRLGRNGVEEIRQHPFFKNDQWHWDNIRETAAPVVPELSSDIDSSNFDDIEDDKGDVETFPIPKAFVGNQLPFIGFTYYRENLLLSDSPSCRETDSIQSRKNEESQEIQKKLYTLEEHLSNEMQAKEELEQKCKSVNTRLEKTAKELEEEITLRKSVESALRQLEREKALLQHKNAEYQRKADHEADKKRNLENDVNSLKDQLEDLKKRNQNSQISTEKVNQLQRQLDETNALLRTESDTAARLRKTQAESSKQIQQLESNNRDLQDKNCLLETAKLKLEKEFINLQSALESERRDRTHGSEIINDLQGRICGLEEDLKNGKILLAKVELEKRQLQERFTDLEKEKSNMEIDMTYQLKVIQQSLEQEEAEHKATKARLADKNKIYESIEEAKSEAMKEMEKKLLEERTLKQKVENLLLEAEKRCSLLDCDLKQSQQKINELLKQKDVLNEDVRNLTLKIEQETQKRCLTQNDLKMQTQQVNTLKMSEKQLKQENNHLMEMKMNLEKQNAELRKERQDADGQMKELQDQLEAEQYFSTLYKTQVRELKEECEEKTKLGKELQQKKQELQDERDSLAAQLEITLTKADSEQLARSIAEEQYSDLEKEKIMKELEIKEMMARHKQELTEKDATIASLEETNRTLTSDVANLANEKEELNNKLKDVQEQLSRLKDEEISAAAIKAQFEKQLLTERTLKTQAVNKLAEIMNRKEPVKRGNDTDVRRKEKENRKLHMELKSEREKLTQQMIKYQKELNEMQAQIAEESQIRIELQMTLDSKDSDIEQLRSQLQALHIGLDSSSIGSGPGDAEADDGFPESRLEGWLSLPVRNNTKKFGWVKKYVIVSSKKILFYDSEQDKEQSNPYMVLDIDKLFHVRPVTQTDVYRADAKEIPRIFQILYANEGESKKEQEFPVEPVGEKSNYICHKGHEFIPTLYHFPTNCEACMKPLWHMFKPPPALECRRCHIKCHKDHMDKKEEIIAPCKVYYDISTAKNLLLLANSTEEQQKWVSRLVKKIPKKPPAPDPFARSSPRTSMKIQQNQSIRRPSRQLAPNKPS
Chain of LIMK1 (P53667 whole entry): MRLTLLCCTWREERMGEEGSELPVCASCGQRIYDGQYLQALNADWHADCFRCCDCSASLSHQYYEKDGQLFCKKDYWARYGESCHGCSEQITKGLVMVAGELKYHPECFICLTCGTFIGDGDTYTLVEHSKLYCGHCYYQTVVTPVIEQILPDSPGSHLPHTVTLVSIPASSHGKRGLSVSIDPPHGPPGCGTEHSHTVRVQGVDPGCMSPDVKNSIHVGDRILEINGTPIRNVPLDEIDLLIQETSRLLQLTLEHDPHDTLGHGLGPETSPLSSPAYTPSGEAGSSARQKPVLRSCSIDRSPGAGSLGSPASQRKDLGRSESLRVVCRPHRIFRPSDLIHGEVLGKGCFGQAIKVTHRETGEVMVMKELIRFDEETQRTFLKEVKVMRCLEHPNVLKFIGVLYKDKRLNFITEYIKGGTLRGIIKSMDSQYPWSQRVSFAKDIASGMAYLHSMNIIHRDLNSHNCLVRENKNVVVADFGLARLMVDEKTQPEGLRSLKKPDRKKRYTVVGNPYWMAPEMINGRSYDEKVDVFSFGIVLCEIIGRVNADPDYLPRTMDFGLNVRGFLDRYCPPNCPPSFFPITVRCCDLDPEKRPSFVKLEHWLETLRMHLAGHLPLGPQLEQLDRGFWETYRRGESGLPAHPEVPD

Compound	inhibition at 1 µM (ROCK1; [6])	inhibition at 1 µM (ROCK2; [7])	Ki (LIMK2; Lanthascreen Eu binding assay)	Ki (LIMK1; Lanthascreen Eu binding assay)	inhibition at 25 µM [1, 9]	further results
O=C(Nc1cccc(Br)c1)N1CC=C(c2ncnc3[nH]c4c(c23)CCCC4)CC1 [Compound 115, N-(3-Bromophenyl)-4-(6,7,8,9-tetrahydro-5H-pyrimido[4,5-b]indol-4-yl)-3,6-dihydropyridine-1(2H)-carboxamide]	–	–	–	–	–	inhibition at 1 µM (ROCK1; [2]): 7%; inhibition at 1 µM (ROCK2; [3]): 11%; Ki (LIMK2): 16.2 nM; inhibition at 25 µM [1, 4]: 81.8%; inhibition at 25 µM [1, 5]: 81.8%; Ki (LIMK1): 5.37 nM
O=C(Nc1cccc(Cl)c1)N1CC=C(c2ncnc3[nH]c4c(c23)CCC4)CC1 [Compound 111, N-(3-Chlorophenyl)-4-(5,6,7,8-tetrahydrocyclopenta[4,5]pyrrolo[2,3-d]pyrimidin-4-yl)-3,6-dihydropyridine-1(2H)-carboxamide]	–	–	25.5 nM	5.78 nM	82.3%	inhibition at 1 µM (ROCK1; [2]): 10%; inhibition at 1 µM (ROCK2; [3]): 14%; inhibition at 25 µM [1, 8]: 82.3%
CNC(=O)c1cccc(NC(=O)N2CC=C(c3ncnc4[nH]c5c(c34)CCC5)CC2)c1 [Compound 133, N-[3-(Methylcarbamoyl)phenyl]-4-(7,9,11-triazatricyclo [6.4.0.02,6]dodeca-1(8),2(6),9,11-tetraen-12-yl)-3,6-dihydropyridine-1(2)-carboxamide]	–	–	40.5 nM	49.1 nM	–	% inhibition (ROCK1) 1 uM (ROCK1; 1 uM): −19%; % inhibition (ROCK2) 1 uM (ROCK2; 1 uM): 1%; % inhibition Cofilin phosphorylation HeLa cells treated 2 h with 25 uM of inhibitor ([1]; HeLa cells, 2 h, 25 uM): 78.8%; % inhibition of cofilin phosphorylation in HeLa cells (treatment 2 h, at 25 μM) [1, 10]: 78.8%
COc1cccc(Oc2cccc(NC(=O)N3CC=C(c4ncnc5[nH]cc(C6CC6)c45)CC3)c2)c1 [Compound 82, 4-(5-Cyclopropyl-7H-pyrrolo[2,3-d]pyrimidin-4-yl)-N-[3-(3-methoxyphenoxy)phenyl]-3,6-dihydropyridine-1(2H)-carboxamide]	16%	11%	20.3 nM	47.4 nM	82.7%	inhibition at 25 µM [1, 8]: 82.7%
O=C(Nc1cccc(C(F)(F)F)c1)N1CC=C(c2ncnc3[nH]c4c(c23)CCC4)CC1 [Compound 128, 4-(7,9,11-Triazatricyclo[6.4.0.02,6]dodeca-1(8),2(6),9,11-tetraen-12-yl)-N[3(trifluoromethyl)phenyl]-3,6-dihydropyridine-1(2H)-carboxamide]	–	–	68.3 nM	27.1 nM	–	% inhibition (ROCK2) 1 uM (ROCK2; 1 uM): −14%; % inhibition Cofilin phosphorylation HeLa cells treated 2 h with 25 uM of inhibitor ([1]; HeLa cells, 2 h, 25 uM): 83.9%; % inhibition of cofilin phosphorylation in HeLa cells (treatment 2 h, at 25 μM) [1, 10]: 83.9%
Cc1c[nH]c2ncnc(C3=CCN(C(=O)Nc4ccc5ccccc5c4)CC3)c12 [Compound 13, 4-(5-Methyl-7H-pyrrolo[2,3-d]pyrimidin-4-yl)-N-(naphthalen-2-yl)-3,6-dihydropyridine-1(2H)-carboxamide]	73%	56%	–	–	–	inhibition at 25 µM [1, 4]: 84.2%; inhibition at 25 µM [1, 5]: 84.2%
O=C(Nc1cccc(Br)c1)N1CC=C(c2ncnc3[nH]c4c(c23)CCCCC4)CC1 [Compound 118, N-(3-Bromophenyl)-4-(5,6,7,8,9,10-hexahydrocyclohepta[4,5]pyrrolo[2,3-d]pyrimidin-4-yl)-3,6-dihydropyridine-1(2H)-carboxamide]	–	–	–	–	–	inhibition at 1 µM (ROCK1; [2]): 10%; inhibition at 1 µM (ROCK2; [3]): -4%; Ki (LIMK2): 40.4 nM; inhibition at 25 µM [1, 4]: 84.2%; inhibition at 25 µM [1, 5]: 84.2%; Ki (LIMK1): 14.7 nM
Cc1c[nH]c2ncnc(C3=CC(C)N(C(=O)Nc4cccc(Br)c4)CC3)c12 (stereo not drawn) [Compound 49a-49b, N-(3-bromophenyl)-6-methyl-4-(5-methyl-7H-pyrrolo[2,3-d]pyrimidin-4-yl)-3,6-dihydropyridine-1(2H)-carboxamide (49a) and N-(3-bromophenyl)-2-methyl-4-(5-methyl-7H-pyrrolo[2,3-d]pyrimidin-4-yl)-3,6-dihydropyridine-1(2H)-carboxamide (49b)]	–	–	–	–	–	% inhibition (ROCK1) 1 uM (ROCK1): 96%; % inhibition (ROCK2) 1 uM (ROCK2): 98%; % inhibition Cofilin phosphorylation HeLa cells treated 2 h with 25 uM of inhibitor [1]: 88.1%; % inhibition of cofilin phosphorylation in HeLa cells (treatment 2 h, at 25 μM) [1]: 88.1%
Cc1c[nH]c2ncnc(C3=CCN(C(=O)Nc4cccc(-n5cncn5)c4)CC3)c12 [Compound 26, N-(3-(1H-1,2,4-Triazol-1-yl)phenyl)-4-(5-methyl-7H-pyrrolo[2,3-d]pyrimidin-4-yl)-3,6-dihydropyridine-1(2H)-carboxamide]	85%	64%	90.7 nM	278 nM	–	–
O=C(Nc1cccc(-n2cccc2)c1)N1CC=C(c2ncnc3[nH]cc(C4CC4)c23)CC1 [Compound 81, 4-(5-Cyclopropyl-7H-pyrrolo[2,3-d]pyrimidin-4-yl)-N-(3-pyrrol-1-ylphenyl)-3,6-dihydropyridine-1(2H)-carboxamide]	36%	35%	–	–	–	inhibition at 25 µM [1, 4]: 90%; inhibition at 25 µM [1, 5]: 90%

Continued, in another order:

inhibition at 1 µM (ROCK1; [6])	inhibition at 1 µM (ROCK2; [7])	Ki (LIMK2; Lanthascreen Eu binding assay)	Ki (LIMK1; Lanthascreen Eu binding assay)	Compound	inhibition at 25 µM [1, 9]	further results
72%	57%	217 nM	85.5 nM	Cc1c[nH]c2ncnc(C3=CCN(C(=O)Nc4cccc(OCC5CCC(F)(F)CC5)c4)CC3)c12 [Compound 191, N-(3-((4,4-difluorocyclohexyl)methoxy)phenyl)-4-(5-methyl-7H-pyrrolo[2,3-d]pyrimidin-4-yl)-3,6-dihydropyridine-1(2H)-carboxamide]	–	inhibition at 25 µM [1, 8]: 87%
-6%	2%	415 nM	389 nM	CN(C)Cc1cccc(NC(=O)N2CC=C(c3ncnc4[nH]c5c(c34)CCC5)CC2)c1 [Compound 132, N-[3-[(dimethylamino)methyl]phenyl]-4-(7,9,11-triaza-tricyclo[6.4.0.02,6]dodeca-1(8),2(6),9,11-tetraen-12-yl)-3,6-dihydropyridine-1(2H)-carboxamide]	76.2%	inhibition at 25 µM [1, 8]: 76.2%
3%	18%	25.2 nM	6.1 nM	COc1cccc(NC(=O)N2CC=C(c3ncnc4[nH]c5c(c34)CCC5)CC2)c1 [Compound 121, N-(3-Methoxyphenyl)-4-(5,6,7,8-tetrahydrocyclopenta[4,5]pyrrolo[2,3-d]pyrimidin-4-yl)-3,6-dihydropyridine-1(2H)-carboxamide]	64.5%	–
6%	8%	10.9 nM	42.5 nM	O=C(Nc1cccc(Oc2ccccc2)c1)N1CC=C(c2ncnc3[nH]cc(C4CC4)c23)CC1 [Compound 79, 4-(5-Cyclopropyl-7H-pyrrolo[2,3-d]pyrimidin-4-yl)-N-(3-phenoxyphenyl)-3,6-dihydropyridine-1(2H)-carboxamide]	83.1%	inhibition at 25 µM [1, 8]: 83.1%
3%	20%	39.3 nM	8.19 nM	N#Cc1cccc(NC(=O)N2CC=C(c3ncnc4[nH]c5c(c34)CCC5)CC2)c1 [Compound 127, N-(3-Cyanophenyl)-4-(7,9,11-triazatricyclo[6.4.0.02,6]dodeca-1(8),2(6),9,11-tetraen-12-yl)-3,6-dihydropyridine-1(2H)-carboxamide]	68.5%	–
43%	36%	9.66 nM	12 nM	Cc1c[nH]c2ncnc(C3=CCN(C(=O)Nc4cccc(-c5cccc(OCCCNS(C)(=O)=O)c5)c4)CC3)c12 [Compound 175, N-[3-[3-[3-(methanesulfonamido)propoxy]phenyl]phenyl]-4-(5-methyl-7H-pyrrolo[2,3-d]pyrimidin-4-yl)-3,6-dihydro-2H-pyridine-1-carboxamide]	98.1%	–
88%	78%	2540 nM	1080 nM	Cc1c[nH]c2ncnc(C3=CCN(C(=O)Nc4cccc(C(=O)N5CCN(S(C)(=O)=O)CC5)c4)CC3)c12 [Compound 172, 4-(5-methyl-7H-pyrrolo[2,3-d]pyrimidin-4-yl)-N-[3-(4-methylsulfonylpiperazine-1-carbonyl)phenyl]-3,6-dihydro-2H-pyridine-1-carboxamide]	–	–
71%	46%	15.6 nM	50.5 nM	Cc1c[nH]c2ncnc(C3=CCN(C(=O)Nc4cccc(Oc5cccc(Cl)c5)c4)CC3)c12 [Compound 204, N-(3-(3-chlorophenoxy)phenyl)-4-(5-methyl-7H-pyrrolo[2,3-d]pyrimidin-4-yl)-3,6-dihydropyridine-1(2H)-carboxamide]	–	–
99%	97%	863 nM	669 nM	Cc1c[nH]c2ncnc(C3=CCN(C(=O)Nc4cccc(OCCCN5CCN(C)CC5)c4)CC3)c12 [Compound 185, 4-(5-methyl-7H-pyrrolo[2,3-d]pyrimidin-4-yl)-N-(3-(3-(4-methylpiperazin-1-yl)propoxy)phenyl)-3,6-dihydropyridine-1(2H)-carboxamide]	–	–
87%	78%	1470 nM	710 nM	Cc1c[nH]c2ncnc(C3=CCN(C(=O)Nc4cccc(OCCN5CCN(C)CC5)c4)CC3)c12 [Compound 184, 4-(5-methyl-7H-pyrrolo[2,3-d]pyrimidin-4-yl)-N-(3-(2-(4-methylpiperazin-1-yl)ethoxy)phenyl)-3,6-dihydropyridine-1(2H)-carboxamide]	–	–
